Broadly, the MIC is the smallest concentration in the dilution series that meets the test's criterion for growth inhibition. A lower MIC goes with a more susceptible organism.

The results in this text go back to ChEMBL document CHEMBL1133072, “Synthesis and biological activity of 1beta-methyl-2-[5'-isoxazoloethenylpyrrolidin-3'-ylthio]carbapenems” (2000).

Structures are written as SMILES. Values after ≈ are worked out from the molar mass of the structure shown.

Assay [1] deals with Pseudomonas aeruginosa. The assay can be described thus: Minimum inhibitory concentration against Pseudomonas aeruginosa 9027 was determined by agar dilution method using Mueller-Hinton. In kind it is functional. A general note: In agar dilution the substance is mixed into plates at graded concentrations.
The target in assay [2] is Dipeptidase 1 (Sus scrofa) (UniProt P22412). Briefly: Relative half life of hydrolysis to meropenem by partially purified porcine renal DHP-I was determined.
In assay [3] the test system is Escherichia coli. The assay can be described thus: Minimum inhibitory concentration against Escherichia coli 055 was determined by agar dilution method using Mueller-Hinton. In kind it is functional.
The subject of another assay is Enterobacter cloacae. Briefly: Minimum inhibitory concentration against Enterobacter cloacae 1321E was determined by agar dilution method using Mueller-Hinton. The class given is functional.
Assay [4] has as its system Staphylococcus aureus. The assay can be described thus: Minimum inhibitory concentration against Staphylococcus aureus SG 511 was determined by agar dilution method using Mueller-Hinton. In kind it is functional.
Assay [5] concerns Staphylococcus aureus. Briefly: Minimum inhibitory concentration against Staphylococcus aureus 503 was determined by agar dilution method using Mueller-Hinton. In kind it is functional.
For another assay, the system named is Streptococcus pyogenes. Briefly: Minimum inhibitory concentration against Streptococcus pyogenes 308A was determined by agar dilution method using Mueller-Hinton. In kind it is functional.
The subject of assay [6] is Pseudomonas aeruginosa. The assay can be described thus: Minimum inhibitory concentration against Pseudomonas aeruginosa 1592E was determined by agar dilution method using Mueller-Hinton. In kind it is functional.
The subject of assay [7] is Staphylococcus aureus. Briefly: Minimum inhibitory concentration against Staphylococcus aureus 285 was determined by agar dilution method using Mueller-Hinton. In kind it is functional.
Assay [8] deals with Escherichia coli. The assay can be described thus: Minimum inhibitory concentration against Escherichia coli 1507E was determined by agar dilution method using Mueller-Hinton. The class given is functional.
For a further assay, the system named is Klebsiella aerogenes. Briefly: Minimum inhibitory concentration against Klebsiella aerogenes 1522E was determined by agar dilution method using Mueller-Hinton. The class given is functional.
The subject of the next assay is Salmonella typhimurium. The assay can be described thus: Minimum inhibitory concentration against Salmonella Typhimurium was determined by agar dilution method using Mueller-Hinton. In kind it is functional, Salmonella enterica subsp. enterica serovar Typhimurium. Conditions: Salmonella enterica.
Assay [9] has as its system Pseudomonas aeruginosa. Briefly: Minimum inhibitory concentration against Pseudomonas aeruginosa 1771M was determined by agar dilution method using Mueller-Hinton. The class given is functional.

Chain of Dipeptidase 1 (Sus scrofa) (P22412 whole entry, looked up): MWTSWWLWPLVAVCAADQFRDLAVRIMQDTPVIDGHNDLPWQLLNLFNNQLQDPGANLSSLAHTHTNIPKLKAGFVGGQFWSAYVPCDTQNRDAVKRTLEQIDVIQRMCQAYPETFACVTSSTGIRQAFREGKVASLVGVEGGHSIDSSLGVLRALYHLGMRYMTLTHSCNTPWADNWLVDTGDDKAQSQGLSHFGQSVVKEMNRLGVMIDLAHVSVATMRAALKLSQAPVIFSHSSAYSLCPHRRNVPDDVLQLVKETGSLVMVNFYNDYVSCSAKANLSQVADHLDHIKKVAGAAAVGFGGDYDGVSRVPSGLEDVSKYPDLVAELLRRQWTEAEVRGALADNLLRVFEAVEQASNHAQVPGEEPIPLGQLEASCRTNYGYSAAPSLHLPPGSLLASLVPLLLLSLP

As to `C[C@@H](O)[C@H]1C(=O)N2C(C(=O)O)=C(SCCNC=N)C[C@H]12` [IMIPENEM ANHYDROUS], the MIC was 0.781 µg/mL (≈ 2.61 µM) against Pseudomonas aeruginosa [1]; 0.098 µg/mL (≈ 0.327 µM) against Escherichia coli [3]; 0.195 µg/mL (≈ 0.651 µM) in the assay with Enterobacter cloacae; 0.025 µg/mL (≈ 0.0835 µM) against Staphylococcus aureus [4]; 0.013 µg/mL (≈ 0.0434 µM) in the assay with Staphylococcus aureus [5]; 0.007 µg/mL (≈ 0.0234 µM) against Streptococcus pyogenes. In addition, the MIC in the assay on Pseudomonas aeruginosa [6] worked out at 1.56 µg/mL (≈ 5.22 µM); against Staphylococcus aureus [7], 0.025 µg/mL (≈ 0.0835 µM); against Escherichia coli [8] it was 0.195 µg/mL (≈ 0.651 µM); in the assay on Klebsiella aerogenes, 0.391 µg/mL (≈ 1.31 µM); against Salmonella typhimurium, 0.781 µg/mL (≈ 2.61 µM); against Pseudomonas aeruginosa [9], 0.195 µg/mL (≈ 0.651 µM). The compound further had a Relativity in assay [2] of 0.19.

For `COC(=O)c1cc(/C=C\[C@@H]2C[C@H](SC3=C(C(=O)O)N4C(=O)[C@H]([C@@H](C)O)[C@H]4[C@H]3C)CN2)on1`, the MIC is 0.098 µg/mL (≈ 0.211 µM) in the assay with Pseudomonas aeruginosa [1]; 0.025 µg/mL (≈ 0.0539 µM) in the assay on Escherichia coli [3]; 0.025 µg/mL (≈ 0.0539 µM) in the assay with Enterobacter cloacae; 0.049 µg/mL (≈ 0.106 µM) with Staphylococcus aureus [4]; 0.025 µg/mL (≈ 0.0539 µM) with Staphylococcus aureus [5]; 0.007 µg/mL (≈ 0.0151 µM) against Streptococcus pyogenes. The MIC turned out to be 0.195 µg/mL (≈ 0.421 µM) in the assay on Pseudomonas aeruginosa [6]; 0.049 µg/mL (≈ 0.106 µM) in the assay on Staphylococcus aureus [7]; 0.025 µg/mL (≈ 0.0539 µM) in the assay with Escherichia coli [8]; 0.049 µg/mL (≈ 0.106 µM) against Klebsiella aerogenes; 0.025 µg/mL (≈ 0.0539 µM) with Salmonella typhimurium; 0.195 µg/mL (≈ 0.421 µM) against Pseudomonas aeruginosa [9]. In addition, in assay [2], the Relativity amounted to 1.35.

For `C[C@@H](O)[C@H]1C(=O)N2C(C(=O)O)=C(S[C@@H]3CN[C@H](/C=C/c4cc(Cl)no4)C3)[C@H](C)[C@H]12`, the MIC in the assay with Pseudomonas aeruginosa [1] amounted to 0.781 µg/mL (≈ 1.78 µM); against Escherichia coli [3], 0.025 µg/mL (≈ 0.0568 µM); against Enterobacter cloacae, 0.013 µg/mL (≈ 0.0296 µM); in the assay on Staphylococcus aureus [4], 0.013 µg/mL (≈ 0.0296 µM); against Staphylococcus aureus [5], 0.013 µg/mL (≈ 0.0296 µM); in the assay with Streptococcus pyogenes it was 0.004 µg/mL (≈ 0.00909 µM). The MIC amounted to 0.781 µg/mL (≈ 1.78 µM) against Pseudomonas aeruginosa [6]; 0.025 µg/mL (≈ 0.0568 µM) with Staphylococcus aureus [7]; 0.025 µg/mL (≈ 0.0568 µM) in the assay on Escherichia coli [8]; 0.025 µg/mL (≈ 0.0568 µM) against Klebsiella aerogenes; 0.025 µg/mL (≈ 0.0568 µM) with Salmonella typhimurium; 0.195 µg/mL (≈ 0.443 µM) against Pseudomonas aeruginosa [9]. This compound came in with a Relativity in assay [2] of 1.33.

For `C[C@@H](O)[C@H]1C(=O)N2C(C(=O)O)=C(S[C@@H]3CN[C@H](/C=C/c4ccno4)C3)[C@H](C)[C@H]12`, the MIC in the assay on Pseudomonas aeruginosa [1] is 0.195 µg/mL (≈ 0.481 µM); in the assay with Escherichia coli [3], 0.025 µg/mL (≈ 0.0617 µM); in the assay with Enterobacter cloacae, 0.025 µg/mL (≈ 0.0617 µM); in the assay on Staphylococcus aureus [4], 0.025 µg/mL (≈ 0.0617 µM); with Staphylococcus aureus [5], 0.013 µg/mL (≈ 0.0321 µM); with Streptococcus pyogenes, 0.004 µg/mL (≈ 0.00986 µM). In addition, the MIC in the assay on Pseudomonas aeruginosa [6] came out at 0.195 µg/mL (≈ 0.481 µM); against Staphylococcus aureus [7], 0.025 µg/mL (≈ 0.0617 µM); in the assay on Escherichia coli [8] it was 0.025 µg/mL (≈ 0.0617 µM); against Klebsiella aerogenes, 0.049 µg/mL (≈ 0.121 µM); against Salmonella typhimurium it was 0.049 µg/mL (≈ 0.121 µM); against Pseudomonas aeruginosa [9] it was 0.195 µg/mL (≈ 0.481 µM). The compound further returned a Relativity in assay [2] of 1.95.

As to `C[C@@H](O)[C@H]1C(=O)N2C(C(=O)O)=C(S[C@@H]3CN[C@H](/C=C\c4cc(CO)no4)C3)[C@H](C)[C@H]12`, the minimum inhibitory concentration (MIC) in the assay on Pseudomonas aeruginosa [1] is 3.12 µg/mL (≈ 7.18 µM); against Escherichia coli [3] it was 0.049 µg/mL (≈ 0.113 µM); in the assay with Enterobacter cloacae it was 0.049 µg/mL (≈ 0.113 µM); in the assay with Staphylococcus aureus [4] it was 0.049 µg/mL (≈ 0.113 µM); in the assay on Staphylococcus aureus [5], 0.049 µg/mL (≈ 0.113 µM); in the assay with Streptococcus pyogenes it was 0.013 µg/mL (≈ 0.0299 µM). The MIC with Pseudomonas aeruginosa [6] came to 3.12 µg/mL (≈ 7.18 µM); against Staphylococcus aureus [7], 0.049 µg/mL (≈ 0.113 µM); with Escherichia coli [8], 0.049 µg/mL (≈ 0.113 µM); in the assay on Klebsiella aerogenes it was 0.098 µg/mL (≈ 0.225 µM); in the assay with Salmonella typhimurium, 0.098 µg/mL (≈ 0.225 µM); against Pseudomonas aeruginosa [9] it was 1.56 µg/mL (≈ 3.59 µM). This compound returned a Relativity in assay [2] of 1.59.

Turning to `C[C@@H](O)[C@H]1C(=O)N2C(C(=O)O)=C(S[C@@H]3CN[C@H](/C=C\c4cnoc4)C3)[C@H](C)[C@H]12`, the MIC is 25 µg/mL (≈ 61.7 µM) against Pseudomonas aeruginosa [1]; 0.391 µg/mL (≈ 0.964 µM) against Escherichia coli [3]; 1.56 µg/mL (≈ 3.85 µM) in the assay with Enterobacter cloacae; 0.013 µg/mL (≈ 0.0321 µM) in the assay with Staphylococcus aureus [4]; 0.013 µg/mL (≈ 0.0321 µM) in the assay on Staphylococcus aureus [5]; less than 0.002 µg/mL against Streptococcus pyogenes. Besides, the MIC came out at 25 µg/mL (≈ 61.7 µM) against Pseudomonas aeruginosa [6]; 0.025 µg/mL (≈ 0.0617 µM) against Staphylococcus aureus [7]; 1.56 µg/mL (≈ 3.85 µM) against Escherichia coli [8]; 3.12 µg/mL (≈ 7.71 µM) with Klebsiella aerogenes; 0.391 µg/mL (≈ 0.964 µM) with Salmonella typhimurium; 3.12 µg/mL (≈ 7.71 µM) against Pseudomonas aeruginosa [9]. The compound also had a Relativity in assay [2] of 1.84.
